Results taken from ChEMBL document CHEMBL1201862, “PubChem BioAssay data set” (2004).
Structures can show the parent of a compound that is named as a salt. Active and inactive are the calls of the source.

How the values were obtained:
Phospholipase A2 = Phospholipase A2 (Homo sapiens, UniProt P04054); type: functional;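 also: confirmatory dose-response counterscreen on phospholipase A2, testing hits that came from an ultra-high-throughput screen for ATG4B inhibitors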
Cysteine protease ATG4B = target: T1, Cysteine protease ATG4B (Homo sapiens, UniProt Q9Y4P1); type: functional;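 also: Fluorescence-based dose-response confirmation assay measuring inhibition of ATG4B activity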
T1 sequence (Q9Y4P1 whole entry): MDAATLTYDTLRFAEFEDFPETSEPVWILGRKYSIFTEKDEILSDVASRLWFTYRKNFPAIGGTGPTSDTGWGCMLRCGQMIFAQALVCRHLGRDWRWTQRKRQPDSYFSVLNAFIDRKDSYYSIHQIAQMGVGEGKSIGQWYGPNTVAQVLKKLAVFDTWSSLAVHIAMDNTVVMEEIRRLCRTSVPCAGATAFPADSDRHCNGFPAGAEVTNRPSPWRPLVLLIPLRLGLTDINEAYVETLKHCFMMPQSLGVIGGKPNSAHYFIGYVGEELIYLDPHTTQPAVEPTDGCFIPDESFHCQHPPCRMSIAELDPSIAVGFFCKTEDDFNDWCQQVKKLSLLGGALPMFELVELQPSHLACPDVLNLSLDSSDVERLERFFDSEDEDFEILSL

[1] = cAMP pathway inhibition in counterscreen cell line – TR-FRET cAMP detection, counter-screen for MC4R biased antagonist project, dose response (AID 602305); type: functional, cell-based;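 also: U2OS cells stimulated with forskolin near its EC80 as the cAMP inducer; potency is for inhibition of forskolin-stimulated cAMP signaling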
Melanocortin receptor 4 = Melanocortin receptor 4 (Homo sapiens, UniProt P32245); assay: inhibitors of MC4R cAMP signaling – cell-based, TR-FRET, biased antagonists, dose response (AID 602298); type: functional;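 also: antagonist potency against agonist-stimulated cAMP production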
[2] = target: G-protein coupled receptor 55 (Homo sapiens, UniProt Q9Y2T6); assay: inhibition of LPI-stimulated GPR55 beta-arrestin translocation – imaging, U2OS, beta-arrestin-GFP, LPI agonist, primary screen (AID 2013); type: functional;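 also: antagonist potency measured as reduced agonist-driven arrestin aggregation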
[3] = THP-1 cell cytotoxicity, dose response, cytotoxicity control for non-replicating M. tuberculosis project (AID 489025); type: functional
cells [4] = type: functional, cell-based
Vero = assay: cells; type: functional; settings: Chlorocebus sabaeus
cells [5] = type: functional, cell-based; remark: listed apart in the source
[6] = NIH3T3 cell viability loss – ATP luminescence, mouse fibroblasts, counter-screen, dose response (AID 2010); type: functional, cell-based;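 also: cells exposed to compound for about 90 hours before reading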
[7] = Luminescence Cell-Based Dose Retest to Confirm Inhibitors of Cancer Stem Cells. [Related pubchem assays (depositor defined):AID2717, AID2721]; type: functional; settings: Homo sapiens
[8] = Trypanosoma cruzi growth suppression in host cells – NIH3T3 host cells, beta-gal luminescence, confirmation (AID 2044); type: functional, cell-based;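 also: intracellular parasites grown in NIH/3T3 mouse fibroblasts as host cells; luminescent beta-galactosidase reporter signal from transgenic T. cruzi replicating inside host cells; inhibitors lower the luminescence signal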
[9] = target: Beta-2 adrenergic receptor (Homo sapiens, UniProt P07550); assay: ADRB2 activation measured by internalization – cell-based, FAP fluorogen, flow cytometry, cherry pick 1, dose response (AID 588763); type: functional
[10] = Luminescence Cell-Based Dose Response HTS to Identify Activators of Luciferase Translation or Activity in H4 […] Cells. [Related pubchem assays: 1829 (Project Summary), 1814 (Primary HTS)]; type: functional
[11] = Luminescence Cell-Based Dose Confirmation HTS to Identify Activators of 5'UTR Stem-Loop Driven Alpha-Synuclein mRNA Translation in H4 Neuroglioblastoma Cells. [Related pubchem assays: 1829 (Project Summary), 1814 (Primary HTS)]; type: functional
H4 = assay: Luminescence Cell-Based Dose Response HTS to Identify Activators of 5'UTR Stem-Loop Driven Prion Protein mRNA Translation in H4 Neuroglioblastoma Cells. [Related pubchem assays: 1829 (Project Summary), 1814 (Primary HTS)]; type: functional; settings: Homo sapiens
H9c2 = assay: cells; type: functional, cell-based; settings: Rattus norvegicus, H9c2, Myocardium;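 also: confirmatory concentration-response retest of ultra-high-throughput screening hits for modulation of myocardial damage; cell death induced by hydrogen peroxide oxidative stress; compound pretreatment for 60 min then peroxide exposure for 2 h; potency is for protecting the cells against peroxide damage rather than for killing them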
[12] = target: T2, High affinity choline transporter 1 (Homo sapiens, UniProt Q9GZV3); assay: human choline transporter blockers, potency – cell-based, 5-point CRC, membrane potential dye, dose response (AID 504840); type: functional
T2 sequence (Q9GZV3 whole entry): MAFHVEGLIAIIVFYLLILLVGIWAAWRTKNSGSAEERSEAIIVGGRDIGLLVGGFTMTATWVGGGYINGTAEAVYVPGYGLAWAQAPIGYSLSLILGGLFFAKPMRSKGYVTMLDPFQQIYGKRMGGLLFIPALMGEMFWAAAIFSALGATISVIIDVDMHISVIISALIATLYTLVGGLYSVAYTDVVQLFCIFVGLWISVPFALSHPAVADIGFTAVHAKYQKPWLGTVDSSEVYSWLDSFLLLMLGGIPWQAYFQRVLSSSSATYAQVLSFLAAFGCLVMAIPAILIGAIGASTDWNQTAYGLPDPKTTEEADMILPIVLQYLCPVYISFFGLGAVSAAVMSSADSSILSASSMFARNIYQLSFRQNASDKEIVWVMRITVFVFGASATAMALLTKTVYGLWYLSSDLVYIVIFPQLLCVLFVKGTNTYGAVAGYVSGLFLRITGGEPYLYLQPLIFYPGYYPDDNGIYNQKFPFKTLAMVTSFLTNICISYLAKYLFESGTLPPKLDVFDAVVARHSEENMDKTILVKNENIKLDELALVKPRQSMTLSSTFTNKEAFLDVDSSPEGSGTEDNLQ
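For AC50 in this document: cells exposed to compound for roughly 70 hours or longer before luminescence read.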

Beta-2 adrenergic receptor, sequence (P07550 whole entry): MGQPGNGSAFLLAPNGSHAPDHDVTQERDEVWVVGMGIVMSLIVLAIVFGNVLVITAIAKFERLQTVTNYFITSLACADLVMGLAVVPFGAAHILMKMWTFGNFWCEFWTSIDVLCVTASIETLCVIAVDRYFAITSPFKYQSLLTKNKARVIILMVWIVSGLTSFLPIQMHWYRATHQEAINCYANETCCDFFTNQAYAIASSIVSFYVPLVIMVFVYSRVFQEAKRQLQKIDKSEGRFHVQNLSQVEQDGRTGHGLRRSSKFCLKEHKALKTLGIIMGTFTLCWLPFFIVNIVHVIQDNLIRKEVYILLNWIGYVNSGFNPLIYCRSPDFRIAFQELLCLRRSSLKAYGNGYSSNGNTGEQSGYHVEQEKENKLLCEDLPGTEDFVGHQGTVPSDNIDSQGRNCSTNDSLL
Phospholipase A2, sequence (P04054 whole entry): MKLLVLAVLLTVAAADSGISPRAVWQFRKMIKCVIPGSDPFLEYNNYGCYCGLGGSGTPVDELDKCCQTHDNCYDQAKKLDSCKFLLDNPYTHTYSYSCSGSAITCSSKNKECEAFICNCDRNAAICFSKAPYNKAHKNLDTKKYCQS
G-protein coupled receptor 55, sequence (Q9Y2T6 whole entry): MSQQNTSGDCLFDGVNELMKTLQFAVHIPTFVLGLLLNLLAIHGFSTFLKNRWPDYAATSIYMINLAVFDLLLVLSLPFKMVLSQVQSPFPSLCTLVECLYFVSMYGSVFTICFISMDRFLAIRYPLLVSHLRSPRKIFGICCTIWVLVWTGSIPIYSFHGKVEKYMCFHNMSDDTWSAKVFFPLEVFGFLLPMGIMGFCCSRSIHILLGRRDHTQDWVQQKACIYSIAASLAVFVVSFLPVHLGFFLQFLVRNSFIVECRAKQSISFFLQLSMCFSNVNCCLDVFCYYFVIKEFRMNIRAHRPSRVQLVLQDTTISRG
Melanocortin receptor 4, sequence (P32245 whole entry): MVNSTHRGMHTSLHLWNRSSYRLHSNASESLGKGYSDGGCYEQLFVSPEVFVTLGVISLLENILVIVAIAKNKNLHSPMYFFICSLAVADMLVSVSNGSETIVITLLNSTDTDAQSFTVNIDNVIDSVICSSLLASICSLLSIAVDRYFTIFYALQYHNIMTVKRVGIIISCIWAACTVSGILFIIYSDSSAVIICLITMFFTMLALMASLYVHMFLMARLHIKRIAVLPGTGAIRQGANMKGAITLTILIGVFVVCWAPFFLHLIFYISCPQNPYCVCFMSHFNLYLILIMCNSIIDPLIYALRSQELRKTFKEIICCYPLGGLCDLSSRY

Nc1c(N2CCN(c3ccccc3)CC2)c2ccccc2oc1=O
IC50 (Phospholipase A2): 12.9 µM (active) | IC50 (Cysteine protease ATG4B): 20.4 µM (inactive)

COc1ccc(CC(=O)Oc2ccc(F)c(F)c2)cc1S(=O)(=O)N1CCOCC1
IC50 [1]: > 64.6 µM (inactive) | IC50 (Melanocortin receptor 4): > 64.6 µM (inactive)

c1ccc(Cc2nnc(-c3ccccc3)o2)cc1
IC50 [2]: 3.3 µM (active) | CC50 [3]: > 40 µM (active) | EC50 (cells [4]): > 350 µM (not active) | CC50 (Vero): 16.3 µM (active) | EC50 (cells [5]): 56.3 µM (active)

CN(C)CCNC(=O)COc1ccc(C23CC4CC(CC(C4)C2)C3)cc1
EC50 [6]: > 60 µM (inconclusive) | AC50 [7]: 4.95 µM (active) | CC50 (Vero): 18.5 µM (active) | EC50 [8]: 1.83 µM (active)

CCCCC(=O)Nc1ccc(C(=O)N(CC)c2ccccc2C)cc1
EC50 [9]: 17.5 µM (inactive)

O=C(/C=C/c1cccc(O)c1)c1ccc(N2CCOCC2)cc1
EC50 [10]: 12.3 µM (active) | CC50 (Vero): 12.7 µM (active) | EC50 [11]: > 120 µM (not active) | EC50 (H4): > 120 µM (not active)

CC1=C(C#N)C(c2cn(-c3ccccc3)nc2-c2cccs2)C(C#N)=C(C)N1
EC50 [9]: 0.327 µM (inactive)

Cc1cccc(/N=C/c2cc(Br)cc(Cl)c2O)c1
IC50 (H9c2): > 79 µM (inactive) | IC50 [12]: 13.3 µM (active) | IC50 (Phospholipase A2): 12.1 µM (active) | IC50 (Cysteine protease ATG4B): 8.52 µM (active)

CNCC(O)c1ccc(OC(=O)C(C)(C)C)c(OC(=O)C(C)(C)C)c1 (centres undefined) [DIPIVEFRIN HYDROCHLORIDE]
EC50 [9]: 7.13 µM (active)
